Measurements from ChEMBL document CHEMBL3885881, “DrugMatrix”.

Species: Rattus norvegicus
Assay: DrugMatrix - Regimen: Daily Repeat
Type: toxicity, organism-based, Sprague-Dawley
Set-up: regimen Daily Repeat, gender Male, age 6-8 weeks
Details: in vivo, po, route oral GAVAGE, vehicle 100 % WATER; for ABSOLUTE BASOPHIL / ABSOLUTE EOSINOPHIL / ABSOLUTE LYMPHOCYTE / ABSOLUTE MONOCYTE / ABSOLUTE SEGMENTED NEUTROPHIL / BASOPHIL / EOSINOPHIL / ERYTHROCYTE COUNT / HEMATOCRIT / HEMOGLOBIN / LEUKOCYTE COUNT / LYMPHOCYTE / MEAN CORPUSCULAR HEMOGLOBIN / MEAN CORPUSCULAR HEMOGLOBIN CONCENTRATION / MONOCYTE / NEUTROPHIL / NUCLEATED RED BLOOD CELLS / PLATELET COUNT: tissue Blood; for ALANINE AMINOTRANSFERASE / ALBUMIN / ALKALINE PHOSPHATASE / BLOOD UREA NITROGEN / CARBON DIOXIDE / CHLORIDE / CHOLESTEROL / CREATINE PHOSPHOKINASE / CREATININE / GLUCOSE / LACTATE DEHYDROGENASE / LIPASE / PHOSPHORUS / POTASSIUM / SODIUM / TOTAL BILIRUBIN / TOTAL PROTEIN / URIC ACID: tissue Plasma
[1] = 0 mg/kg, 72 h, dose level Control, time 3 day
[2] = 0 mg/kg, 120 h, dose level Control, time 5 day
[3] = 15 mg/kg, 72 h, dose level Low, time 3 day

Cc1ccc(NC(=O)c2ccc(CN3CCN(C)CC3)cc2)cc1Nc1nccc(-c2cccnc2)n1 [IMATINIB]
ABSOLUTE BASOPHIL [1]: 0 CELLS/uL | ABSOLUTE EOSINOPHIL [1]: 151.33 CELLS/uL | ABSOLUTE LYMPHOCYTE [1]: 10599.5 CELLS/uL | ABSOLUTE MONOCYTE [1]: 109.5 CELLS/uL | ABSOLUTE SEGMENTED NEUTROPHIL [1]: 1139.67 CELLS/uL | BASOPHIL [1]: 0% | EOSINOPHIL [1]: 0.83% | ERYTHROCYTE COUNT [1]: 5.54 x10E6/uL | HEMATOCRIT [1]: 35.35% | HEMOGLOBIN [1]: 13.22 G/DL | LEUKOCYTE COUNT [1]: 12 x10E3/uL | LYMPHOCYTE [1]: 89% | MEAN CORPUSCULAR HEMOGLOBIN [1]: 23.88 pg | MEAN CORPUSCULAR HEMOGLOBIN CONCENTRATION [1]: 37.4 G/DL | MONOCYTE [1]: 1% | NEUTROPHIL [1]: 9.17% | NUCLEATED RED BLOOD CELLS [1]: 0 /100WBC | PLATELET COUNT [1]: 1333.33 x10E3/uL | ALANINE AMINOTRANSFERASE [1]: 53.17 u/L | ALBUMIN [1]: 4.32 G/DL | ALKALINE PHOSPHATASE [1]: 404.33 u/L | BLOOD UREA NITROGEN [1]: 15.67 mg/dL | CARBON DIOXIDE [1]: 27.33 mmol/L | CHLORIDE [1]: 101.83 MEQ/L | CHOLESTEROL [1]: 68.67 mg/dL | CREATINE PHOSPHOKINASE [1]: 276.17 u/L | CREATININE [1]: 0.18 mg/dL | GLUCOSE [1]: 163.5 mg/dL | LACTATE DEHYDROGENASE [1]: 144.67 u/L | LIPASE [1]: 8.83 u/L | PHOSPHORUS [1]: 11.72 mg/dL | POTASSIUM [1]: 5.99 MEQ/L | SODIUM [1]: 143.57 MEQ/L | TOTAL BILIRUBIN [1]: 0.2 mg/dL | TOTAL PROTEIN [1]: 6.1 G/DL | URIC ACID [1]: 1.38 mg/dL | ABSOLUTE BASOPHIL [2]: 0 CELLS/uL | ABSOLUTE EOSINOPHIL [2]: 248.67 CELLS/uL | ABSOLUTE LYMPHOCYTE [2]: 12977.83 CELLS/uL | ABSOLUTE MONOCYTE [2]: 19.67 CELLS/uL | ABSOLUTE SEGMENTED NEUTROPHIL [2]: 1137.17 CELLS/uL | BASOPHIL [2]: 0% | EOSINOPHIL [2]: 1.67% | ERYTHROCYTE COUNT [2]: 5.82 x10E6/uL | HEMATOCRIT [2]: 36.35% | HEMOGLOBIN [2]: 13.58 G/DL | LEUKOCYTE COUNT [2]: 14.38 x10E3/uL | LYMPHOCYTE [2]: 90.5% | MEAN CORPUSCULAR HEMOGLOBIN [2]: 23.32 pg | MEAN CORPUSCULAR HEMOGLOBIN CONCENTRATION [2]: 37.42 G/DL | MONOCYTE [2]: 0.17% | NEUTROPHIL [2]: 7.67% | NUCLEATED RED BLOOD CELLS [2]: 0 /100WBC | PLATELET COUNT [2]: 1337.67 x10E3/uL | ALANINE AMINOTRANSFERASE [2]: 48.5 u/L | ALBUMIN [2]: 4.32 G/DL | ALKALINE PHOSPHATASE [2]: 354.33 u/L | BLOOD UREA NITROGEN [2]: 16 mg/dL | CARBON DIOXIDE [2]: 27.33 mmol/L | CHLORIDE [2]: 100.33 MEQ/L | CHOLESTEROL [2]: 68 mg/dL | CREATINE PHOSPHOKINASE [2]: 325.17 u/L | CREATININE [2]: 0.23 mg/dL | GLUCOSE [2]: 172 mg/dL | LACTATE DEHYDROGENASE [2]: 254.83 u/L | LIPASE [2]: 8.33 u/L | PHOSPHORUS [2]: 12.17 mg/dL | POTASSIUM [2]: 6.28 MEQ/L | SODIUM [2]: 143.57 MEQ/L | TOTAL BILIRUBIN [2]: 0.18 mg/dL | TOTAL PROTEIN [2]: 6.12 G/DL | URIC ACID [2]: 1.78 mg/dL | ABSOLUTE BASOPHIL [3]: 0 CELLS/uL | ABSOLUTE EOSINOPHIL [3]: 119.67 CELLS/uL | ABSOLUTE LYMPHOCYTE [3]: 6343 CELLS/uL | ABSOLUTE MONOCYTE [3]: 102.67 CELLS/uL | ABSOLUTE SEGMENTED NEUTROPHIL [3]: 568 CELLS/uL | BASOPHIL [3]: 0% | EOSINOPHIL [3]: 1.67% | ERYTHROCYTE COUNT [3]: 5.21 x10E6/uL | HEMATOCRIT [3]: 33.27% | HEMOGLOBIN [3]: 12.53 G/DL | LEUKOCYTE COUNT [3]: 7.13 x10E3/uL | LYMPHOCYTE [3]: 89.33% | MEAN CORPUSCULAR HEMOGLOBIN [3]: 24.03 pg | MEAN CORPUSCULAR HEMOGLOBIN CONCENTRATION [3]: 37.7 G/DL | MONOCYTE [3]: 1.33% | NEUTROPHIL [3]: 7.67% | NUCLEATED RED BLOOD CELLS [3]: 0 /100WBC | PLATELET COUNT [3]: 1102.33 x10E3/uL | ALANINE AMINOTRANSFERASE [3]: 49.67 u/L | ALBUMIN [3]: 4.23 G/DL | ALKALINE PHOSPHATASE [3]: 362.67 u/L | BLOOD UREA NITROGEN [3]: 15.33 mg/dL | CARBON DIOXIDE [3]: 28.33 mmol/L | CHLORIDE [3]: 102 MEQ/L | CHOLESTEROL [3]: 64.67 mg/dL | CREATINE PHOSPHOKINASE [3]: 198.67 u/L | CREATININE [3]: 0.21 mg/dL | GLUCOSE [3]: 165 mg/dL | LACTATE DEHYDROGENASE [3]: 128.33 u/L | LIPASE [3]: 8 u/L | PHOSPHORUS [3]: 11 mg/dL | POTASSIUM [3]: 5.66 MEQ/L | SODIUM [3]: 144.5 MEQ/L | TOTAL BILIRUBIN [3]: 0.2 mg/dL | TOTAL PROTEIN [3]: 6.03 G/DL | URIC ACID [3]: 0.97 mg/dL
